According to patent US10030016B2 (Sunesis Pharmaceuticals, Inc., priority 2009, dated 2018):
pEC50, pIC50: −log10 of the molar value. Counter-ions that a name gives are not always drawn. Like-named read-outs stand apart in the source and are kept apart here.

Assays:
[1] = test system: phospho-akt (Thr308) in PC-3 cells; assay: Inhibition of phospho-akt (Thr308) in PC-3 cells, MSD phospho-akt 308 ELISA kit; type: cell-based; conditions: inhibition of P308 Akt in PC-3 cells, 2 hours, no serum, MSD, read-out: EC50
Outline: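 PC-3 cells were seeded overnight in growth medium with 10% FBS, then exposed to compound serially diluted threefold in serum-free medium for 2 hours. Lysates were captured overnight at 4 degrees on MSD plates and phospho-Akt Thr308 was detected electrochemiluminescently, against DMSO high and 5 μM wortmannin low controls.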

[2] = molecular target: PDK1 (Homo sapiens (Human), UniProt O15530); assay: PDK1 kinase assay (coupled PDK1/AKT/FAM-crosstide assay, IMAP fluorescence polarization); type: biochemical; conditions: inhibition of phospo-PDK1 in vitro
Sequence of PDK1 (O15530 51-359): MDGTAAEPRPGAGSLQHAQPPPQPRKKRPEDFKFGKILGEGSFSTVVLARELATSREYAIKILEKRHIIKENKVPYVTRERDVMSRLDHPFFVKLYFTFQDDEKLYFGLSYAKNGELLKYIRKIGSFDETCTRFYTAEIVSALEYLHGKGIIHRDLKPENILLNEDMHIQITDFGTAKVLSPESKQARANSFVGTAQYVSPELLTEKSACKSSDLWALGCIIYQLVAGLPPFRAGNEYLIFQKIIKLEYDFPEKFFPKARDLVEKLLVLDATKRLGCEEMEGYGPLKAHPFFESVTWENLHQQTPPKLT
Outline: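 GST-tagged human PDK1 (aa 51-359, 0.75 nM) from insect cells activated unphosphorylated GST-AKT2 (aa 140-467–PIFtide fusion, 10 nM), which phosphorylated 100 nM FAM-crosstide; 40 μM ATP, pH 7.2 Tris/MgCl2, 30 min at 25° C. IMAP fluorescence polarization read-out; ΔmP versus compound concentration fitted with a 4-parameter curve.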

Row | SMILES | pEC50 ([1]; Homo sapiens) | pIC50 [2] | pEC50 [1] | pEC50 ([1]; Homo sapiens, PC-3, 2 h)
1 | C[C@H](NC(=O)c1cc(C(F)(F)F)cnc1NCc1ccc(-c2ccc3ncc4ncn(C)c4c3c2)s1)c1ccc(F)c(F)c1 [Example 2.27, (S)-5-trifluoromethyl-N-(1-(3,4-difluorophenyl)ethyl)-2-(((5-(1-methyl-1H-imidazo[4,5-c]quinolin-8-yl)thiophen-2-yl)methyl)amino)nicotinamide] | > 6.00 | > 7.00 |  | 
2 | C[C@H](NC(=O)c1cc(C#N)cnc1NCc1ccc(-c2ccc3ncc4ncn(C)c4c3c2)s1)c1ccc(F)cc1 [Example 2.28, (S)-5-cyano-N-(1-(4-fluorophenyl)ethyl)-2-(((5-(1-methyl-1H-imidazo[4,5-c]quinolin-8-yl)thiophen-2-yl)methyl)amino) nicotinamide] | > 6.00 | > 7.00 |  | 
3 | C[C@H](NC(=O)c1cccnc1NCc1cccc(-c2c[nH]c3ncnc(N)c23)c1)c1ccc(F)cc1 [Example 2.29, (S)-2-(3-(4-amino-7H-pyrrolo[2,3-d]pyrimidin-5-yl)benzylamino)-N-(1-(4-fluorophenyl)ethyl) nicotinamide] |  | > 7.00 | 5.00 to 6.00 | 
4 | C[C@H](NC(=O)c1cccnc1NCc1cccc(-c2c[nH]c3ncnc(N)c23)c1)c1ccc(F)c(F)c1 [Example 2.30, (S)-2-(3-(4-amino-7H-pyrrolo[2,3-d]pyrimidin-5-yl)benzylamino)-N-(1-(3,4-difluorophenyl)ethyl) nicotinamide] | 5.00 to 6.00 | > 7.00 |  | 
5 | O=C(NCc1ccc(F)c(F)c1)c1cccnc1NCc1ccc(-c2cnc3[nH]ccc3c2)s1 [Example 2.31, 2-(((5-(1H-pyrrolo[2,3-b]pyridin-5-yl)thiophen-2-yl)methyl)amino)-N-(3,4-difluorobenzyl) nicotinamide] |  | 6.00 to 7.00 | 5.00 to 6.00 | 
6 | O=C(NCc1ccc(F)c(F)c1)c1cccnc1NCc1ccc(-c2cnc3[nH]ncc3c2)s1 [Example 2.32, 2-(((5-(1H-pyrazolo[3,4-b]pyridin-5-yl)thiophen-2-yl)methyl)amino)-N-(3,4-difluorobenzyl) nicotinamide] | 5.00 to 6.00 | > 7.00 |  | 
7 | Cn1ccc(Nc2ncnc3ccc(-c4ccc(CNc5ncccc5C(=O)NCc5ccc(F)c(F)c5)s4)cc23)n1 [Example 2.34, N-(3,4-difluorobenzyl)-2-(((5-(4-(1-methyl-1H-pyrazol-3-ylamino)quinazolin-6-yl)thiophen-2-yl)methyl)amino) nicotinamide] | < 5.00 | < 5.30 |  | 
8 | O=C(NCc1ccc(F)c(F)c1)c1cccnc1NCc1ccc(-c2cnc3[nH]ncc3c2)cc1 [Example 2.35, 2-(4-(1H-pyrazolo[3,4-b]pyridin-5-yl)benzylamino)-N-(3,4-difluorobenzyl)nicotinamide] | > 6.00 | > 7.00 |  | 
9 | C[C@H](NC(=O)c1cc(C#N)cnc1NCc1ccc(-c2cnc3[nH]ncc3c2)cc1)c1ccc(F)cc1 [Example 2.36, 5-Cyano-N-[(S)-1-(4-fluoro-phenyl)-ethyl]-2-[4-(1H-pyrazolo[3,4-]pyridin-5-yl)-benzylamino]-nicotinamide] |  | > 7.00 | > 6.00 | 
10 | O=C(NCc1ccc(F)c(F)c1)c1cc(C(F)(F)F)cnc1NCc1ccc(-c2cnc3[nH]ncc3c2)cc1 [Example 2.37] | > 6.00 | > 7.00 |  | 
11 | C[C@H](NC(=O)c1cccnc1NCc1ccc(-c2cn(C)c3ncnc(N)c23)cc1)c1ccc(F)c(F)c1 [Example 2.38, 2-[4-(4-Amino-7-methyl-7H-pyrrolo[2,3-d]pyrimidin-5-yl)-benzylamino]-N-[(S)-1-(3,4-difluoro-phenyl)-ethyl]-nicotinamide] | 5.00 to 6.00 | > 7.00 |  | 
12 | C[C@H](NC(=O)c1cccnc1NCc1ccc(-c2cnc3[nH]ncc3c2)cc1)c1ccc(F)c(F)c1 [Example 2.39, N-[(S)-1-(3,4-Difluoro-phenyl)-ethyl]-2-[4-(1H-pyrazolo[3,4-b]pyridin-5-yl)benzyl-amino]-nicotinamide] | > 6.00 | > 7.00 |  | 

More lines, now with the values ahead:

Row | pEC50 ([1]; Homo sapiens) | pIC50 [2] | pEC50 [1] | pEC50 ([1]; Homo sapiens, PC-3, 2 h) | SMILES
13 | < 5.00 | 6.00 to 7.00 |  |  | Nc1ncnc2ccc(-c3ccc(CNc4ncccc4C(=O)NCc4cc(F)ccc4F)s3)cc12 [Example 3.6, 2-({[5-(4-aminoquinazolin-6-yl)thiophen-2-yl]methyl}amino)-N-(2,5-difluorobenzyl)pyridine-3-carboxamide]
14 | > 6.00 | > 7.00 |  |  | Nc1ncnc2ccc(-c3ccc(CNc4ncccc4C(=O)NCc4ccc(F)cc4)s3)cc12 [Example 3.7, 2-({[5-(4-aminoquinazolin-6-yl)thiophen-2-yl]methyl}amino)-N-(4-fluorobenzyl)pyridine-3-carboxamide (TFA salt)]
15 | 5.00 to 6.00 | > 7.00 |  |  | Nc1ncnc2ccc(-c3ccc(CNc4ncccc4C(=O)NCc4ccc(F)cc4F)s3)cc12 [Example 3.8, 2-({[5-(4-aminoquinazolin-6-yl)thiophen-2-yl]methyl}amino)-N-(2,4-difluorobenzyl)pyridine-3-carboxamide (TFA salt)]
16 | > 6.00 | > 7.00 |  |  | Nc1ncnc2ccc(-c3ccc(CNc4ncccc4C(=O)NCc4cccc(F)c4)s3)cc12 [Example 3.9, 2-({[5-(4-aminoquinazolin-6-yl)thiophen-2-yl]methyl}amino)-N-(3-fluorobenzyl)pyridine-3-carboxamide (TFA salt)]
17 | 5.00 to 6.00 | 6.00 to 7.00 |  |  | Nc1ncnc2ccc(-c3ccc(CNc4ncccc4C(=O)NCc4cccc(F)c4F)s3)cc12 [Example 3.10, 2-({[5-(4-aminoquinazolin-6-yl)thiophen-2-yl]methyl}amino)-N-(2,3-difluorobenzyl)pyridine-3-carboxamide (TFA salt)]
18 | < 5.00 | > 7.00 |  |  | Nc1ncnc2ccc(-c3ccc(CNc4ncccc4C(=O)NCc4cc(F)c(F)cc4F)s3)cc12 [Example 3.11, 2-({[5-(4-aminoquinazolin-6-yl)thiophen-2-yl]methyl}amino)-N-(2,4,5-trifluorobenzyl)pyridine-3-carboxamide (TFA salt)]
19 | < 5.00 | < 5.30 |  |  | Nc1ncnc2ccc(-c3ccc(CNc4ncccc4C(=O)NCc4cc(F)ccc4C(F)(F)F)s3)cc12 [Example 3.12, 2-({[5-(4-aminoquinazolin-6-yl)thiophen-2-yl]methyl}amino)-N-[5-fluoro-2-(trifluoromethyl)benzyl]pyridine-3-carboxamide (TFA salt)]
20 | < 5.00 | 6.00 to 7.00 |  |  | CN(Cc1ccc(F)c(F)c1)C(=O)c1cccnc1NCc1ccc(-c2ccc3ncnc(N)c3c2)s1 [Example 3.13, 2-({[5-(4-aminoquinazolin-6-yl)thiophen-2-yl]methyl}amino)-N-(3,4-difluorobenzyl)-N-methylpyridine-3-carboxamide (TFA salt)]
21 | < 5.00 | < 5.30 |  |  | C[C@@H](NC(=O)c1cccnc1NCc1ccc(-c2ccc3ncnc(N)c3c2)s1)c1ccc(F)cc1 [Example 3.14, 2-({[5-(4-aminoquinazolin-6-yl)thiophen-2-yl]methyl}amino)-N-[(1R)-1-{4-fluorophenyl)ethyl]pyridine-3-carboxamide (TFA salt)]
22 | > 6.00 | 6.00 to 7.00 |  |  | C[C@H](NC(=O)c1cccnc1NCc1ccc(-c2ccc3ncnc(N)c3c2)s1)c1ccc(F)cc1 [Example 3.15, 2-({[5-(4-aminoquinazolin-6-yl)thiophen-2-yl]methyl}amino)-N-[(1S)-1-(4-fluorophenyl)ethyl] pyridine-3-carboxamide]
23 | 5.00 to 6.00 | > 7.00 |  |  | Nc1ncnc2ccc(-c3ccc(CNc4ncccc4C(=O)NCc4ccc(F)c(F)c4F)s3)cc12 [Example 3.16, 2-({[5-(4-aminoquinazolin-6-yl)thiophen-2-yl]methyl}amino)-N-(2,3,4-trifluorobenzyl)pyridine-3-carboxamide (TFA salt)]
24 |  | 6.00 to 7.00 |  | < 5.00 | Cc1ccc(CNC(=O)c2cccnc2NCc2ccc(-c3ccc4ncnc(N)c4c3)s2)o1 [Example 3.17, 2-({[5-(4-aminoquinazolin-6-yl)thiophen-2-yl]methyl}amino)-N-[(5-methylfuran-2-yl)methyl] pyridine-3-carboxamide (TFA salt)]
25 | < 5.00 | 6.00 to 7.00 |  |  | Cc1ccc(F)cc1CNC(=O)c1cccnc1NCc1ccc(-c2ccc3ncnc(N)c3c2)s1 [Example 3.18, 2-({[5-(4-aminoquinazolin-6-yl)thiophen-2-yl]methyl}amino)-N-(5-fluoro-2-methylbenzyl) pyridine-3-carboxamide (TFA salt)]
26 |  | 6.00 to 7.00 |  | < 5.00 | CC(NC(=O)c1cccnc1NCc1ccc(-c2ccc3ncnc(N)c3c2)s1)c1ccc(F)c(F)c1 (centres unmarked) [Example 3.19, 2-({[5-(4-aminoquinazolin-6-yl)thiophen-2-yl]methyl}amino)-N-[1-(3,4-difluorophenyl)ethyl] pyridine-3-carboxamide (TFA salt)]
27 | < 5.00 | < 5.30 |  |  | C[C@@H](NC(=O)c1cccnc1NCc1ccc(-c2ccc3ncnc(N)c3c2)s1)c1cccc(F)c1 [Example 3.20, 2-({[5-(4-aminoquinazolin-6-yl)thiophen-2-yl]methyl}amino)-N-[(1R)-1-(3-fluorophenyl)ethyl] pyridine-3-carboxamide (TFA salt)]
28 | 5.00 to 6.00 | > 7.00 |  |  | C[C@H](NC(=O)c1cccnc1NCc1ccc(-c2ccc3ncnc(N)c3c2)s1)c1cccc(F)c1 [Example 3.21, 2-({[5-(4-aminoquinazolin-6-yl)thiophen-2-yl]methyl}amino)-N-[(1S)-1-(3-fluorophenyl)ethyl]pyridine-3-carboxamide (TFA salt)]
